Laboratory results from ChEMBL document CHEMBL3779888, “Discovery of novel 2-phenyl-imidazo[1,2-a]pyridine analogues targeting tubulin polymerization as antiproliferative agents” (Eur J Med Chem, 2016).

Columns and labels:
HeLa = assay: Cytotoxicity against human HeLa cells after 3 days by SRB assay; type: functional, cell-based; details: 72 h
Tubulin (Sus scrofa) = Tubulin (Sus scrofa) (UniProt P02554+P02550); assay: Displacement of [3H]-colchicine from porcine tubulin at 20 uM preincubated for 1 hr followed by radioligand addition measured after 30 mins by DE81 filter-based scintillation spectrometric assay; type: protein assay
Tubulin = Tubulin (Sus scrofa, UniProt P02554+P02550); assay: Inhibition of porcine tubulin polymerization by UV-Vis microplate reader analysis; type: protein assay

Tubulin (Sus scrofa), sequence (P02550 whole entry, looked up): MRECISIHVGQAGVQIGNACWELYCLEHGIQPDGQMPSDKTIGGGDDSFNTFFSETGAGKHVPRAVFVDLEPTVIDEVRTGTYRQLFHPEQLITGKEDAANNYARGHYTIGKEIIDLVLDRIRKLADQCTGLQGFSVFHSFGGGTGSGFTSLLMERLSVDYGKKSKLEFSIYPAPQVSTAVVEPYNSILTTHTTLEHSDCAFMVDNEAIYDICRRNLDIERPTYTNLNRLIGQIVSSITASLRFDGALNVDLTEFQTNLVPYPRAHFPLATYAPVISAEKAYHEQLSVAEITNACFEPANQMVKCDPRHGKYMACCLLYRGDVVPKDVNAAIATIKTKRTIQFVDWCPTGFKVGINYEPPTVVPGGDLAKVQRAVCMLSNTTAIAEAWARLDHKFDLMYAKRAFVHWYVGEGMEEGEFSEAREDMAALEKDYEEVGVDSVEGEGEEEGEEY
Tubulin (Sus scrofa), sequence (P02554 whole entry, looked up): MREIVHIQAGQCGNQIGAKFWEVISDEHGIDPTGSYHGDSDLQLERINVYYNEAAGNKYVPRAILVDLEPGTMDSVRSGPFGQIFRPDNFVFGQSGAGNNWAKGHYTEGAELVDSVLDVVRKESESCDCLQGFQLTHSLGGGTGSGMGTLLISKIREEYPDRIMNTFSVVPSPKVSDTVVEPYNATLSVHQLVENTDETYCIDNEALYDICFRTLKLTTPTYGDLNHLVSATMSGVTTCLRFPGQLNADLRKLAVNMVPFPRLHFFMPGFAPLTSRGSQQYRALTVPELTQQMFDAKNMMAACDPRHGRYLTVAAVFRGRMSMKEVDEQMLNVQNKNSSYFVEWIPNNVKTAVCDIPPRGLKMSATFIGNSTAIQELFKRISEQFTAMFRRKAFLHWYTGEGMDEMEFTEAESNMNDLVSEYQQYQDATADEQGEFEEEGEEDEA

inhibition (Tubulin (Sus scrofa)) [%]	IC50 (Tubulin) [nM]	Structure (SMILES)	IC50 (HeLa) [nM]
		COc1ccc(CNc2c(-c3ccccc3O)nc3ccc(Br)cn23)cc1	810
		COc1ccc(CNc2c(-c3cc([N+](=O)[O-])ccc3O)nc3ccccn23)cc1	210
		COc1ccc(CCNc2c(-c3ccccc3O)nc3ccccn23)cc1	8220
		COc1ccc(CNc2c(-c3c(O)cc(OC)cc3OC)nc3ccccn23)cc1	> 10000
		COc1ccc(CNc2c(-c3ccccc3O)nc3cccc(F)n23)cc1	46
41.1	7160	COc1ccc(CNc2c(-c3ccccc3O)nc3cnccn23)cc1	37
72.2	3410	COc1ccc(CNc2c(-c3ccccc3O)nc3ccc(F)cn23)cc1	13
		COc1cc2c(c(OC)c1OC)-c1ccc(OC)c(=O)cc1[C@@H](NC(C)=O)CC2 [COLCHICINE]	37
		COc1ccc(CNc2c(-c3cc(Cl)cc(Cl)c3O)nc3ccccn23)cc1	4160
		COc1ccc(CNc2c(-c3ccccc3NC(C)=O)nc3ccccn23)cc1	> 10000
66	4350	COc1ccc(CNc2c(-c3ccccc3O)nc3ccccn23)cc1	15
		COc1ccc(CNc2c(-c3ccccc3NS(C)(=O)=O)nc3ccccn23)cc1	> 10000
		COc1ccc(CNc2c(-c3ccccc3OC)nc3ccccn23)cc1	230
		COc1ccc(Nc2c(-c3ccccc3O)nc3ccccn23)cc1	> 10000
